Results as given in PubChem BioAssay AID328 (DTP/NCI, 2004).
Several values for one entry are separate records, joined by “and”; a condition that tells them apart may be missing. Identical values can stand only once. Inconclusive results and toxic doses are left out.

Tested on: BDF1 mice, P388 leukemia ip, median survival T/C
Test: NCI In Vivo Anticancer Drug Screen. Data for tumor model P388 Leukemia (intraperitoneal) in B6D2F1 (BDF1) mice
Details: endpoint: median survival time, higher = longer survival
In short: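 Vehicle-dosed animals serve as the reference; survival of compound-dosed, tumour-implanted mice is divided by it.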

[1] = dose: 100.0 mg/kg/injection, schedule: Q01DX001 (ip), vehicle: saline sonified
[2] = dose: 100.0 mg/kg/injection, schedule: Q04DX003 (ip), vehicle: saline with Tween-80
[3] = dose: 200.0 mg/kg/injection, schedule: Q04DX003 (ip), vehicle: saline with Tween-80

Cc1ccc(C(c2ccc(C)cc2)C(Cl)(Cl)Cl)cc1
T/C [1]: 100 % of control | T/C (dose: 200.0 mg/kg/injection, schedule: Q01DX001 (ip), vehicle: saline sonified): 100 % of control | T/C (dose: 400.0 mg/kg/injection, schedule: Q01DX001 (ip), vehicle: saline sonified): 90 % of control

Clc1ccc(-c2nc3ccccc3cc2N2CCCCC2)cc1
T/C (dose: 100.0 mg/kg/injection, schedule: Q01DX001 (ip), vehicle: other): 110 % of control | T/C (dose: 200.0 mg/kg/injection, schedule: Q01DX001 (ip), vehicle: other): 105 % of control | T/C (dose: 400.0 mg/kg/injection, schedule: Q01DX001 (ip), vehicle: other): 105 % of control

O=C(O)c1ccc2c3c(cccc13)CC2
T/C (dose: 25.0 mg/kg/injection, schedule: Q01DX001 (ip), vehicle: saline sonified): 100 % of control | T/C (dose: 50.0 mg/kg/injection, schedule: Q01DX001 (ip), vehicle: saline sonified): 100 % of control | T/C [1]: 104 % of control

O=C(NO)c1ccccn1
T/C (dose: 130.0 mg/kg/injection, schedule: Q01DX010 (ip), vehicle: water): 109 % of control | T/C (dose: 200.0 mg/kg/injection, schedule: Q01DX010 (ip), vehicle: water): 100 % of control

CC(C)CCC[C@@H](C)[C@H]1CC[C@H]2[C@@H]3CC=C4C[C@@H](O)CC[C@]4(C)[C@H]3CC[C@]12C
T/C (dose: 100.0 mg/kg/injection, schedule: Q01DX009 (ip), vehicle: other): 106 % of control | T/C (dose: 200.0 mg/kg/injection, schedule: Q01DX009 (ip), vehicle: other): 103 % of control | T/C (dose: 400.0 mg/kg/injection, schedule: Q01DX009 (ip), vehicle: other): 89 % of control | T/C (dose: 800.0 mg/kg/injection, schedule: Q01DX009 (ip), vehicle: other): 105 % of control

CS(=O)(=O)NC(=O)NC(=S)c1ccccc1
T/C (dose: 100.0 mg/kg/injection, schedule: Q01DX001 (ip), vehicle: saline with Tween-80): 100 % of control | T/C (dose: 200.0 mg/kg/injection, schedule: Q01DX001 (ip), vehicle: saline with Tween-80): 100 % of control | T/C (dose: 400.0 mg/kg/injection, schedule: Q01DX001 (ip), vehicle: saline with Tween-80): 108 % of control

C[C@@H]1C[C@@]2(C)[C@@H](CC[C@@H]3[C@@H]2CC[C@]2(C)[C@@H](O)CC[C@@H]32)C[C@@H]1O
T/C (dose: 220.0 mg/kg/injection, schedule: Q01DX010 (sc), vehicle: steriod suspending solution): 100 % of control | T/C (dose: 440.0 mg/kg/injection, schedule: Q01DX010 (sc), vehicle: steriod suspending solution): 115 % of control

c1nc(SC2=NCCN2)c2[nH]cnc2n1
T/C (dose: 4.12 mg/kg/injection, schedule: Q01DX009 (ip), vehicle: saline): 118 % of control | T/C (dose: 6.25 mg/kg/injection, schedule: Q01DX009 (ip), vehicle: saline): 150 % of control | T/C (dose: 9.37 mg/kg/injection, schedule: Q01DX009 (ip), vehicle: saline): 122 % of control | T/C (dose: 12.5 mg/kg/injection, schedule: Q01DX009 (ip), vehicle: saline): 119 % of control | T/C (dose: 12.5 mg/kg/injection, schedule: Q04DX003 (ip), vehicle: saline): 115 % of control | T/C (dose: 21.0 mg/kg/injection, schedule: Q01DX009 (ip), vehicle: saline): 100 % of control | T/C (dose: 25.0 mg/kg/injection, schedule: Q01DX009 (ip), vehicle: saline): 123 % of control | T/C (dose: 25.0 mg/kg/injection, schedule: Q04DX003 (ip), vehicle: saline): 115 % of control | T/C (dose: 50.0 mg/kg/injection, schedule: Q04DX003 (ip), vehicle: saline): 123 % of control

CCN(C(C)(C)C(SSSC(c1ccc(Cl)cc1)C(C)(C)N(CC)S(C)(=O)=O)c1ccc(Cl)cc1)S(C)(=O)=O (stereo not given)
T/C (dose: 50.0 mg/kg/injection, schedule: Q04DX003 (ip), vehicle: saline with Tween-80): 109 % of control | T/C [2]: 122 % of control | T/C [3]: 122 % of control

O=C(O)C1C=CC(C(=O)O)CC1 (stereo not given)
T/C [2]: 95 % of control | T/C [3]: 93 % of control | T/C (dose: 400.0 mg/kg/injection, schedule: Q04DX003 (ip), vehicle: saline with Tween-80): 93 % of control

CCOC(=S)SCC(=O)Nc1ccc(Cl)cc1
T/C (dose: 75.0 mg/kg/injection, schedule: Q01DX009 (ip), vehicle: saline with Tween-80): 110 % of control | T/C (dose: 150.0 mg/kg/injection, schedule: Q01DX009 (ip), vehicle: saline with Tween-80): 89 % of control | T/C (dose: 300.0 mg/kg/injection, schedule: Q01DX009 (ip), vehicle: saline with Tween-80): 89 % of control

COC(=O)[C@@H]1[C@H](O)[C@H](C)[C@H](O)[C@H](C)/C=C\C=C(C)C(=O)Nc2c(C)c(OC(C)=O)c3c(c2O)C(=O)C(C)=C2OCOC(=C23)C(C)=C[C@@](C)(O)[C@H](O)[C@@H](C)[C@H]1OC(C)=O
T/C (dose: 50.0 mg/kg/injection, schedule: Q01DX009 (ip), vehicle: saline + alcohol): 95 % of control | T/C (dose: 100.0 mg/kg/injection, schedule: Q01DX009 (ip), vehicle: Klucel (hydroxypropylcellulose) (HPC)): 106 % of control | T/C (dose: 100.0 mg/kg/injection, schedule: Q01DX009 (ip), vehicle: saline + alcohol): 99 % of control | T/C (dose: 200.0 mg/kg/injection, schedule: Q01DX009 (ip), vehicle: Klucel (hydroxypropylcellulose) (HPC)): 116 % of control and 123 % of control | T/C (dose: 200.0 mg/kg/injection, schedule: Q01DX009 (ip), vehicle: saline + alcohol): 95 % of control | T/C (dose: 400.0 mg/kg/injection, schedule: Q01DX009 (ip), vehicle: Klucel (hydroxypropylcellulose) (HPC)): 115 % of control | T/C (dose: 400.0 mg/kg/injection, schedule: Q01DX009 (ip), vehicle: saline + alcohol): 100 % of control
